Results on 5 molecules are retold here after ChEMBL document CHEMBL2074335, “Cloning and functional characterization of the multidrug resistance-associated protein (MRP1/ABCC1) from the cynomolgus monkey” (Mol Cancer Ther, 2003).

Chain of Multidrug resistance-associated protein 1 (P33527 whole entry): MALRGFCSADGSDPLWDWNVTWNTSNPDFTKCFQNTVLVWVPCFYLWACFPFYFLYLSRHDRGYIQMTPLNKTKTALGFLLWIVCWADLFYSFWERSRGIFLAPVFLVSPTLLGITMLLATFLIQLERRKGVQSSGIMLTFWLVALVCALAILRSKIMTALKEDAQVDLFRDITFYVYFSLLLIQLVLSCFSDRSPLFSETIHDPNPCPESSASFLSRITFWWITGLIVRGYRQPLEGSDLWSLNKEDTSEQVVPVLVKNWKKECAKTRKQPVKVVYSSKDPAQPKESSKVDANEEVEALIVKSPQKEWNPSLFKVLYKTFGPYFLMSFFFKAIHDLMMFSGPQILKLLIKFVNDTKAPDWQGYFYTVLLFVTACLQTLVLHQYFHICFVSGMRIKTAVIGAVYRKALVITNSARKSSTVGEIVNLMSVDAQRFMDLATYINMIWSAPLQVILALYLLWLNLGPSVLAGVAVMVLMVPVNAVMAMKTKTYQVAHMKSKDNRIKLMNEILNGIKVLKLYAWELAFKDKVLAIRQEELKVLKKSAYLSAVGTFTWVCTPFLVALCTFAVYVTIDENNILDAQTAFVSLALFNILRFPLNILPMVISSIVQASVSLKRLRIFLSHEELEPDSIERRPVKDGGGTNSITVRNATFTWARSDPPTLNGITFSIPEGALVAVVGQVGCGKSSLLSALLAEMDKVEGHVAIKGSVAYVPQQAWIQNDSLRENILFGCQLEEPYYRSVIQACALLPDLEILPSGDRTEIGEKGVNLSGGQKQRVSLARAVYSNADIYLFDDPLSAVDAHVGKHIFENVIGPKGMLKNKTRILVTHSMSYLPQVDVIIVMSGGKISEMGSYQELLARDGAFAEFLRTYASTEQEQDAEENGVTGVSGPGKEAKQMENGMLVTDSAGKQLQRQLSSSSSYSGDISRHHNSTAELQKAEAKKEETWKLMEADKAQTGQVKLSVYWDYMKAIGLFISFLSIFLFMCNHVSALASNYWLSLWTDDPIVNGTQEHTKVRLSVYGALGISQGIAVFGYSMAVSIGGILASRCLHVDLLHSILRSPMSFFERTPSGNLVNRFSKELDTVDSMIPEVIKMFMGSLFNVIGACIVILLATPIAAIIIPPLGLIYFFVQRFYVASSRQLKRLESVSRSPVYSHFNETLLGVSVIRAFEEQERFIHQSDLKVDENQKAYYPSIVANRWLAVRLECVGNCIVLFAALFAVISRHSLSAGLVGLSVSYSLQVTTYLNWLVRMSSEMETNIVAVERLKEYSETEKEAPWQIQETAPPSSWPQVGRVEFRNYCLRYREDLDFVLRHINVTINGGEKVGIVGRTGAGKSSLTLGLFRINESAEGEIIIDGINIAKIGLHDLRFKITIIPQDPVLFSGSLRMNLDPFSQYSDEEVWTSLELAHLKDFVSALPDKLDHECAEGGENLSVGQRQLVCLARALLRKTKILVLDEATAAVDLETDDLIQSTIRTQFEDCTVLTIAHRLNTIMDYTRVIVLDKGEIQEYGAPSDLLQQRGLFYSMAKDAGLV

The data set addresses Multidrug resistance-associated protein 1 (Homo sapiens, UniProt P33527). The data set can be described thus: TP_TRANSPORTER: drug resistance in MRP1-expressing PEAKSTABEL cells. Conditions: peakstable. It counts as functional, cell-based.
On to `COc1cccc2c1C(=O)c1c(O)c3c(c(O)c1C2=O)C[C@@](O)(C(=O)CO)C[C@@H]3O[C@H]1C[C@H](N)[C@H](O)[C@H](C)O1` [DOXORUBICIN], for which the Activity result is “substrate []”. The result for `CC[C@]1(O)C[C@H]2CN(CCc3c([nH]c4ccccc34)[C@@](C(=O)OC)(c3cc4c(cc3OC)N(C=O)[C@H]3[C@@](O)(C(=O)OC)[C@H](OC(C)=O)[C@]5(CC)C=CCN6CC[C@]43[C@@H]65)C2)C1` [VINCRISTINE] reads “substrate []”; that for `COc1cc([C@@H]2c3cc4c(cc3[C@@H](O[C@@H]3O[C@@H]5CO[C@@H](C)O[C@H]5[C@H](O)[C@H]3O)[C@H]3COC(=O)[C@H]23)OCO4)cc(OC)c1O` [ETOPOSIDE], “substrate []”. The result for `COc1cc(NC(=O)Cc2cccc(-n3c(=O)c4c(C)onc4c4c(Cl)cccc43)c2)cc(OC)c1OC` reads “inhibitor []”.

Turning to `COc1cccc2c1C(=O)c1c(O)c3c(c(O)c1C2=O)C[C@@](O)(C(=O)CO)C[C@@H]3O[C@H]1C[C@H](N)[C@@H](O)[C@H](C)O1` [EPIRUBICIN], the Activity entry was “substrate []”.
